The text below walks through data of article PMC5085249, “The Diguanylate Cyclase HsbD Intersects with the HptB Regulatory Cascade to Control Pseudomonas aeruginosa Biofilm and Motility” (PLoS Genetics, 2016).

The target in this assay is T1, HsbD (PA3343) (Pseudomonas aeruginosa, UniProt Q9HYQ2).
T1 construct: His-HsbD overexpressed in E. coli BL21(DE3), whole-cell lysate; native protein 389 aa, six predicted TM domains (52-206), GGDEF domain 252-389; tag kept
In words: DRaCALA (nitrocellulose, […]-labelled ligand). The note with it: 4 nM 32P-c-di-GMP; E. coli whole-cell lysate; 40 mM Tris pH 7.5, 100 mM NaCl, 10 mM MgCl2; allosteric inhibitory I-site; labelled compound. It counts as binding.

T1 sequence (Q9HYQ2 entry or part of it): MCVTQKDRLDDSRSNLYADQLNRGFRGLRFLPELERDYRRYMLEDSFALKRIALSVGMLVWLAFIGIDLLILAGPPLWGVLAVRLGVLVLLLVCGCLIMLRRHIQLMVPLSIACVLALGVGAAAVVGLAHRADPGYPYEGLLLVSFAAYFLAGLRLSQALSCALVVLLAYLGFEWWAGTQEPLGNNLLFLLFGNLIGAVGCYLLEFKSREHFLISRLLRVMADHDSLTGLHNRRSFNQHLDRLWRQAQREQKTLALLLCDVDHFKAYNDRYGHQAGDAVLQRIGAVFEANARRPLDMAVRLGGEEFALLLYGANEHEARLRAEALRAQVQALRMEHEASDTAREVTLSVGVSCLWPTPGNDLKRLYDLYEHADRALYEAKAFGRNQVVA

Regarding `Nc1nc2c(ncn2[C@@H]2O[C@@H]3COP(=O)(O)O[C@H]4[C@@H](O)[C@H](n5cnc6c(=O)[nH]c(N)nc65)O[C@@H]4COP(=O)(O)O[C@H]3[C@H]2O)c(=O)[nH]1` [c-di-GMP], the fraction bound result is reported as “Significant c-di-GMP binding was observed with the construct encoding wild-type HsbD”.
